Reference: the supplement of paper PMC8671470

Experiments:
Conditions in all cases: 72 h
KG-1 = assay: cell viability (% survival relative to DMSO control, bortezomib = 0%); higher = less cytotoxic
In short: (§1)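 Seeding density for each of the 10 AML and 5 CML cell lines was titrated to the linear growth range. Cells went into 384-well plates pre-printed in duplicate with compounds at 1, 10, 100, 1000 or 10000 nM and were held for 72 h at 37 °C with 5% CO2. CellTiter-Glo luminescence then provided the readout. Percent survival is expressed relative to vehicle at 100% and a 10 µM positive control at 0%, averaged over duplicates.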

K-562 = assay: as above
In short: as §1

SHI-1 = assay: as above
In short: as §1

HEL = assay: as above
In short: as §1

ML-2 = assay: as above
In short: as §1

MOLM-13 = assay: as above
In short: as §1

THP-1 = assay: as above
In short: as §1

KU-812 = assay: as above
In short: as §1

Mono-Mac-6 = assay: as above
In short: as §1

BV-173 = assay: as above
In short: as §1

HL-60 [1] = assay: as above
In short: as §1

KCL-22 [2] = assay: as above
In short: as §1

LAMA-84 = assay: as above
In short: as §1

MV4-11 = assay: as above
In short: as §1

NOMO-1 = assay: as above
In short: as §1

KCL-22 [3] = test system: KCL-22
In short: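 Fifteen myeloid leukaemia cell lines were seeded in RPMI 1640 at a density titrated to the linear growth range. Each line went into 384-well plates with compounds acoustically pre-printed at five tenfold doses from 1 to 10,000 nM, in duplicate, and was incubated for 72 h at 37 °C with 5% CO2. Luminescent ATP viability was normalised to vehicle and to a positive control at 10 µM. The IC50 came from four-parameter log-logistic dose–response fits.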

HL-60 [4] = assay: cell viability (% survival relative to DMSO control); higher = less cytotoxic
In short: (§2)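 In 384-well plates, the full library was rescreened in duplicate on HL-60 cells in RPMI 1640 with 10% FBS, at 1–10,000 nM in five tenfold concentrations, for 72 h at 37 °C, 5% CO2. Each run also held DMSO or 100 nM of one of three metabolic inhibitors. Viability was measured by CellTiter-Glo and normalised to DMSO wells and to wells with proteasome inhibitor, present at 10 μM. Any area under the curve comes from four-parameter log-logistic fitting with drc and PharmacoGx.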

HL-60 [5] = assay: area under dose-response curve (viability, 1 nM-10 uM) (fraction (0-1)); higher = more sensitive
In short: as §2

Oc1ccc(Nc2nc(-c3ccc(Cl)cc3)cs2)cc1 [SKI II]
Conditions | area under dose-response curve, co-treatment: AZD3965 100 nM | area under dose-response curve, co-treatment: DMSO vehicle | area under dose-response curve, co-treatment: GSK2194069 100 nM | area under dose-response curve, co-treatment: pictilisib 100 nM | cell viability, 1 nM [%] | cell viability, 10 nM [%] | cell viability, 100 nM [%] | cell viability, 1000 nM [%] | cell viability, 10000 nM [%]
BV-173 | – | – | – | – | 104 | 98.3 | 96.7 | 70.5 | 0.732
HEL | – | – | – | – | 102 | 109 | 111 | 95.5 | 5.26
HL-60 [1] | – | – | – | – | 88.9 | 110 | 97.7 | 77.7 | 11.2
HL-60 [5] | 0.0929 | 0.0805 | 0.0628 | 0.151 | – | – | – | – | –
K-562 | – | – | – | – | 99.5 | 107 | 107 | 75.2 | 36.8
KCL-22 [2] | – | – | – | – | 94.5 | 107 | 109 | 92.1 | 25.7
KG-1 | – | – | – | – | 98 | 103 | 97.2 | 81.7 | 32.7
KU-812 | – | – | – | – | 95.5 | 101 | 106 | 90.8 | 20.6
LAMA-84 | – | – | – | – | 105 | 99.9 | 96.1 | 96.4 | 34.2
ML-2 | – | – | – | – | 93.8 | 97.2 | 99.3 | 89.7 | 44
MOLM-13 | – | – | – | – | 80 | 104 | 110 | 106 | 44.3
MV4-11 | – | – | – | – | 97.2 | 99.2 | 114 | 95.9 | 4.54
Mono-Mac-6 | – | – | – | – | 99.2 | 97.8 | 100 | 93.5 | 14.3
NOMO-1 | – | – | – | – | 97.3 | 104 | 104 | 99.3 | 66.1
SHI-1 | – | – | – | – | 94.9 | 97.8 | 99.7 | 96 | 53.3
THP-1 | – | – | – | – | 100 | 96.8 | 103 | 86.4 | 8.38

Conditions | IC50 (cell viability) [µM]
KCL-22 [3] | 3.07

cell viability [%], HL-60 [4]
Conditions | 0.001 µM | 0.01 µM | 0.1 µM | 1 µM | 10 µM
co-treatment: AZD3965 100 nM | 101.4 | 103 | 104 | 104 | 15.7
co-treatment: DMSO vehicle | 102 | 105 | 97.6 | 100 | 22.1
co-treatment: GSK2194069 100 nM | 99 | 94.2 | 99.8 | 101 | 30.7
co-treatment: pictilisib 100 nM | 96.5 | 102 | 101 | 88 | 3.95

O=C(O)c1cc(Cl)cc(Cl)c1O [3,5-Dichlorosalicylic Acid]
Conditions | area under dose-response curve, co-treatment: AZD3965 100 nM | area under dose-response curve, co-treatment: DMSO vehicle | area under dose-response curve, co-treatment: GSK2194069 100 nM | area under dose-response curve, co-treatment: pictilisib 100 nM | cell viability, 1 nM [%] | cell viability, 10 nM [%] | cell viability, 100 nM [%] | cell viability, 1000 nM [%] | cell viability, 10000 nM [%]
BV-173 | – | – | – | – | 107 | 86.1 | 119 | 106 | 106
HEL | – | – | – | – | 102 | 111 | 98.6 | 111 | 104
HL-60 [1] | – | – | – | – | 106 | 136 | 84.5 | 117 | 93.5
HL-60 [5] | < 0.0301 | < 0.0301 | < 0.0301 | < 0.0301 | – | – | – | – | –
K-562 | – | – | – | – | 107 | 125 | 104 | 111 | 90.9
KCL-22 [2] | – | – | – | – | 105 | 140 | 87 | 94.7 | 85.9
KG-1 | – | – | – | – | 107 | 107 | 85.6 | 117 | 96.8
KU-812 | – | – | – | – | 90.5 | 93.7 | 95.8 | 109 | 87.3
LAMA-84 | – | – | – | – | 105 | 87.4 | 97.5 | 103 | 92
ML-2 | – | – | – | – | 97.4 | 99.8 | 95.6 | 107 | 93.1
MOLM-13 | – | – | – | – | 92 | 112 | 83.9 | 110 | 91.7
MV4-11 | – | – | – | – | 96 | 106 | 91.3 | 104 | 88.3
Mono-Mac-6 | – | – | – | – | 106 | 102 | 93.7 | 107 | 89.7
NOMO-1 | – | – | – | – | 93.9 | 94.9 | 88.1 | 105 | 98.7
SHI-1 | – | – | – | – | 110 | 105 | 98.4 | 111 | 90
THP-1 | – | – | – | – | 95.3 | 93.3 | 87.7 | 96.7 | 98.8

Conditions | IC50 (cell viability) [µM]
KCL-22 [3] | > 10

cell viability [%], HL-60 [4]
Conditions | 0.001 µM | 0.01 µM | 0.1 µM | 1 µM | 10 µM
co-treatment: AZD3965 100 nM | 107 | 98.5 | 99.4 | 101 | 101
co-treatment: DMSO vehicle | 104 | 105 | 101 | 106 | 101
co-treatment: GSK2194069 100 nM | 97.6 | 97 | 95.56 | 97.5 | 102
co-treatment: pictilisib 100 nM | 80.1 | 93.1 | 100 | 107 | 103

Cc1ccccc1C(C(=O)NC1CCCCC1)N(C(=O)Cn1ccnc1C)c1cccc(F)c1 (stereo not given) [AGI-5198]
Conditions | area under dose-response curve, co-treatment: AZD3965 100 nM | area under dose-response curve, co-treatment: DMSO vehicle | area under dose-response curve, co-treatment: GSK2194069 100 nM | area under dose-response curve, co-treatment: pictilisib 100 nM | cell viability, 1 nM [%] | cell viability, 10 nM [%] | cell viability, 100 nM [%] | cell viability, 1000 nM [%] | cell viability, 10000 nM [%]
BV-173 | – | – | – | – | 88.3 | 103 | 107 | 104 | 95.2
HEL | – | – | – | – | 95.4 | 104 | 106 | 99.4 | 101
HL-60 [1] | – | – | – | – | 107 | 106 | 99.5 | 102 | 116
HL-60 [5] | < 0.0301 | < 0.0301 | < 0.0301 | < 0.0301 | – | – | – | – | –
K-562 | – | – | – | – | 98.5 | 101 | 103 | 96.5 | 104
KCL-22 [2] | – | – | – | – | 101 | 114 | 132 | 111 | 104
KG-1 | – | – | – | – | 102 | 100 | 128 | 94.9 | 94.5
KU-812 | – | – | – | – | 97.7 | 105 | 109 | 92.1 | 103
LAMA-84 | – | – | – | – | 97.6 | 104 | 115 | 97.2 | 99.9
ML-2 | – | – | – | – | 96.8 | 106 | 122 | 103 | 95.1
MOLM-13 | – | – | – | – | 87 | 124 | 108 | 80 | 118
MV4-11 | – | – | – | – | 94 | 102 | 91.5 | 91.4 | 115
Mono-Mac-6 | – | – | – | – | 92.8 | 107 | 100 | 104 | 99
NOMO-1 | – | – | – | – | 96 | 103 | 107 | 100 | 102
SHI-1 | – | – | – | – | 94.9 | 92.7 | 107 | 96.2 | 99.1
THP-1 | – | – | – | – | 96.9 | 100 | 107 | 101 | 100

Conditions | IC50 (cell viability) [µM]
KCL-22 [3] | > 10

cell viability [%], HL-60 [4]
Conditions | 0.001 µM | 0.01 µM | 0.1 µM | 1 µM | 10 µM
co-treatment: AZD3965 100 nM | 95.1 | 98.5 | 93.2 | 91.8 | 100.5
co-treatment: DMSO vehicle | 98.5 | 106 | 104 | 99.4 | 95.7
co-treatment: GSK2194069 100 nM | 103 | 101 | 88.5 | 101 | 106
co-treatment: pictilisib 100 nM | 98.4 | 114 | 103 | 102 | 104
